Assay results as given in patent US20190142810A1, “MITOCHONDRIAL INHIBITORS FOR THE TREATMENT OF PROLIFERATION DISORDERS” (Basilea Pharmaceutica International AG, priority 2016, published 2019).

Columns and labels:
HeLa galactose cells = assay: Cell growth and proliferation assay of HeLa galactose cells (crystal violet); type: cell-based; details: Homo sapiens, HeLa, 72 h, 72 hours incubation, crystal violet staining, absorbance at 590 nm
Description: The cervical tumor cell line HeLa (ATCC, CCL-2) was cultivated in DMEM medium (Invitrogen cat. no. 11971, 4.5 g/L high glucose) containing 10% fetal calf serum (Sigma cat. no. F9665) and 1% Penicillin/Streptomycin (Sigma cat. no. P0781) at 37° C. in 5% CO2. HeLa galactose cells (i.e. HeLa cells that grow in high concentrations of galactose) were generated from HeLa glucose cells (i.e. HeLa cells that grow in high concentrations of glucose) by gradually changing the amount of glucose in the media to zero glucose in the presence of galactose as a sugar source (50% galactose/50% glucose media for one week, then 75% galactose/25% glucose media for one week, to 100% galactose media in the third week). Galactose media (Invitrogen cat. no. 11966) was supplemented with 10 mM galactose (Sigma cat. no. G5388).
Cell Growth and Proliferation Assay of HeLa Galactose and Glucose Cells
HeLa galactose cells and HeLa glucose cells were seeded in 96 well plates (TPP, cat. no 92696) at 2000 and 1500 cells/well, respectively, in 100 μL of complete medium. After overnight incubation the cells were incubated for 72 hours in complete medium containing 0.001% DMSO or compounds (final concentration of DMSO 0.001%). After the medium was removed, cells were fixed and stained by adding 50 μL crystal violet staining (0.2% crystal violet (Sigma-Aldrich cat. no. C0775) in 50% methanol) per well. The plates were incubated for 1 hour at room temperature. Subsequently the stain was decanted and plates were washed 4 times with de-mineralized water. Plates were air-dried for 2 hours. The stain was dissolved by adding 100 μL buffer (0.1 M Tris pH 7.5, 0.2% SDS, 20% ethanol) per well and shaking the plates. Absorbance at 590 nm was measured using a SpectraMax® 250 plate reader (Molecular Devices). Antiproliferative/growth inhibition IC50s were calculated from concentration-response curves using GraphPad Prism software.

[1] = tested on: Oxygen consumption (mitochondrial function); assay: Oxygen consumption assay (MitoXpress probe); type: cell-based; details: 5 h, MitoXpress probe signal, kinetic analysis at 37° C. for 5 hours, compared to untreated cells
From the text: Oxygen consumption is one of the most informative and direct measures of mitochondrial function and can be measured, for example, by using the MitoXpress® assay (Luxcel MX-2001, Luxcel Biosciences). The MitoXpress® probe is one of a family of phosphorescent oxygen sensitive probes. The assay exploits the ability of oxygen to quench the excited state of the MitoXpress® probe. As the test material respires (i.e. the cells), oxygen is depleted in the surrounding solution/environment, which increases the probe phosphorescence signal. Changes in oxygen consumption reflecting changes in mitochondrial activity are seen as changes in the MitoXpress® probe signal over time.
Cells were seeded in 96 well black plates with transparent bottoms (Greiner Bio-One cat. no. 655090) at a density of 50′000 cells/well in a final volume of 100 μL. After 24 hours the incubation media was removed and 150 μL of fresh media containing inhibitors at different concentrations was added to each well. Then, 10 μL of MitoXpress® and 150 μL mineral oil were added per well. Reading from the top of the plate, kinetic analysis was performed at 37° C. for 5 hours using a Synergy 4 plate reader (BioTek) and Time-resolved Fluoresence (TRF) wavelengths of 380/11 nm excitation and 650/20 nm emission or 665/40 emission (30 microsecond delay time, 100 microsecond integration time, gain or sensitivity settings set at either medium or high). IC50s were calculated as the concentration that inhibits 50% of the phosphorescent oxygen sensitive probe signal (MitoXpress®) as compared to untreated cells.

Compound | IC50 (HeLa galactose cells) [nM] | IC50 [1] [nM]
O=C(Nc1nc(CCO)ns1)N1CCC(Cc2ccc(Cl)cc2F)CC1 [Example 96] | 208 | 361
Cc1nsc(NC(=O)N2CCC(Cc3ccc(Cl)cc3C)CC2)n1 [Example 14] | 146 | 200
Cc1nsc(NC(=O)N2CCC(Oc3ccc(Cl)cc3Cl)CC2)n1 [Example 20] | 122 | 369
Cc1nsc(NC(=O)N2CCCC(=Cc3ccc(C(F)(F)F)cc3F)CC2)n1 [Example 116] | 54 | 150
COc1ccc(CC2CCN(C(=O)Nc3nc(C)ns3)CC2)c(F)c1 [Example 30] | 59 | 178
Cc1cc(NC(=O)N2CCC(Cc3c(F)cc(N(C)C)cc3F)CC2)ccn1 [Example 153] | 34 | 119
Cc1nsc(NC(=O)N2CCC(Cc3ccc(C)c(C)c3)CC2)n1 [Example 28, 4-[(3,4-dimethylphenyl)methyl]-N-(3-methyl-1,2,4-thiadiazol-5-yl)piperidine-1-carboxamide] | 249 | 334
Cc1cc(NC(=O)N2CCC(=Cc3c(F)cc(N(C)C)cc3F)CC2)sn1 [Example 148, 4-[[4-(dimethylamino)-2,6-difluoro-phenyl]methylene]-N-(3-methylisothiazol-5-yl)piperidine-1-carboxamide] | 9 | 16
COCc1ccc(C=C2CCN(C(=O)Nc3nc(C)ns3)CC2)c(F)c1 [Example 93, 4-[[2-fluoro-4-(methoxymethyl)phenyl]methylene]-N-(3-methyl-1,2,4-thiadiazol-5-yl)piperidine-1-carboxamide] | 56 | 63
Cc1nsc(NC(=O)N2CCC(Cc3ccc(N4CCCC4)cc3)CC2)n1 [Example 42] | 670 | 
Cc1nsc(NC(=O)N2CC/C(=C/c3c(F)cc(Cl)cc3F)CC2(C)C)n1 [Example 169] | 432 | 
Cc1nsc(NC(=O)N2CCC(Cc3c(F)cc(Cl)cc3F)CC2(C)C)n1 (stereo not drawn) [Example 167] | 500 | 
COCCC1CN(C(=O)Nc2nc(C)ns2)CC/C1=C\c1ccc(Cl)cc1F (stereo not drawn) [Example 135, (4E)-4-[(4-chloro-2-fluoro-phenyl)methylene]-3-(2-methoxyethyl)-N-(3-methyl-1,2,4-thiadiazol-5-yl)piperidine-1-carboxamide] | 636 | 
Cc1nsc(NC(=O)N2CCC(=Cc3ccc(N(C)CCCCN)cc3F)CC2)n1 [Example 163] | 293 | 
Cc1nsc(NC(=O)N2CCC(C(=O)c3ccc(C#N)cc3F)CC2)n1 [Example 171] | 67 | 
Cc1nsc(NC(=O)N2CCC(=Cc3ccc(C=O)cc3F)CC2)n1 [Example 88, 4-[(2-fluoro-4-formyl-phenyl)methylene]-N-(3-methyl-1,2,4-thiadiazol-5-yl)piperidine-1-carboxamide] | 418 | 
Cc1cc(NC(=O)N2CCC(=Cc3ccc(Cl)cc3F)CC2)ncn1 [Example 136] | 81 | 
Cc1nsc(NC(=O)N2CCC(=Cc3ccc(N(C)CCCN)cc3F)CC2)n1 [Example 124] | 70 | 
COC(=O)c1ccc(CC2CCN(C(=O)Nc3nc(C)ns3)CC2)c(F)c1 [Example 36] | 540 | 
Cc1nsc(NC(=O)N2CCC(Cc3ccc(C(N)=O)cc3F)CC2)n1 [Example 37, 4-[(4-carbamoyl-2-fluoro-phenyl)methyl]-N-(3-methyl-1,2,4-thiadiazol-5-yl)piperidine-1-carboxamide] | 478 | 
Cc1nsc(NC(=O)N2CCC(Cc3ccc(Cl)cn3)CC2)n1 [Example 61] | 516 | 
Cc1cc(NC(=O)N2CCC(=Cc3c(F)cc(C#N)cc3F)CC2)ccn1 [Example 175] | 58 | 
Cc1nsc(NC(=O)N2CCC(=Cc3c(F)cc(NC4CCOC4)cc3F)CC2)n1 (stereo not drawn) [Example 150] | 124 | 
Cc1nsc(NC(=O)N2CCN(Cc3ccc(Cl)cc3F)CC(O)C2)n1 (stereo not drawn) [Example 162] | 162 | 
